From ChEMBL document CHEMBL5154672, “Design and synthesis of HDAC inhibitors to enhance the therapeutic effect of diffuse large B-cell lymphoma by improving metabolic stability and pharmacokinetic characteristics” (Eur J Med Chem, 2022)

Tests used:
[1] = Cmax in ICR mouse at 100 mg/kg, po measured upto 24 hrs by LC-MS/MS analysis; type: ADME, organism-based; design: time < 24 hrs, dose 100 mg/kg, route po; conditions: in vivo
[2] = Half life in monkey plasma at 10 mg/kg, po measured upto 24 hrs by LC-MS/MS analysis; type: ADME, organism-based, Macaca fascicularis; conditions: cynomolgus monkey
[3] = Oral bioavailability in dog plasma at 10 mg/kg measured upto 24 hrs by LC-MS/MS analysis; type: ADME, organism-based, Canis lupus familiaris
[4] = MRT in monkey plasma at 10 mg/kg, po measured upto 24 hrs by LC-MS/MS analysis; type: ADME, organism-based, Macaca fascicularis; conditions: cynomolgus monkey
[5] = Half life in monkey plasma at 1 mg/kg, iv measured upto 24 hrs by LC-MS/MS analysis; type: ADME, organism-based, Macaca fascicularis; conditions: cynomolgus monkey
[6] = Half life in dog plasma at 1 mg/kg, iv measured upto 24 hrs by LC-MS/MS analysis; type: ADME, organism-based, Canis lupus familiaris
[7] = Aqueous solubility of the compound; type: physicochemical; conditions: aqueous medium
[8] = AUC (0 to infinity) in monkey plasma at 10 mg/kg, po measured upto 24 hrs by LC-MS/MS analysis; type: ADME, organism-based, Macaca fascicularis; design: time < 24 hrs, dose 10 mg/kg, route po; conditions: cynomolgus monkey
[9] = Toxicity against CB.17 SCID mouse xenografted with human TMD8 cells assessed as effect on spleen at 100 mg/kg/day, po for 21 consecutive days by H and E staining method; type: organism-based; conditions: in vivo, 504 h, time 21 day
[10] = Clearance in dog plasma at 1 mg/kg, iv measured upto 24 hrs by LC-MS/MS analysis; type: ADME, organism-based, Canis lupus familiaris; conditions: in vivo
[11] = MRT in dog plasma at 1 mg/kg, iv measured upto 24 hrs by LC-MS/MS analysis; type: ADME, organism-based, Canis lupus familiaris
[12] = AUC (0 to infinity) in dog plasma at 1 mg/kg, iv measured upto 24 hrs by LC-MS/MS analysis; type: ADME, organism-based, Canis lupus familiaris; design: dose 1 mg/kg, time < 24 hrs, route iv
[13] = Toxicity against CB.17 SCID mouse xenografted with human TMD8 cells assessed as effect on liver at 100 mg/kg/day, po for 21 consecutive days by H and E staining method; type: organism-based; conditions: in vivo, 504 h, time 21 day
[14] = Cmax in ICR mouse at 10 mg/kg, po measured upto 24 hrs by LC-MS/MS analysis; type: ADME, organism-based; design: dose 10 mg/kg, time < 24 hrs, route po; conditions: in vivo
[15] = Toxicity against CB.17 SCID mouse xenografted with human TMD8 cells assessed as body weight loss at 50 to 100 mg/kg/day, po for 21 consecutive days; type: organism-based; conditions: in vivo, 504 h, dose 50-100 mg/kg/day, time 21 day
[16] = Toxicity against CB.17 SCID mouse xenografted with human TMD8 cells assessed as effect on kidney at 100 mg/kg/day, po for 21 consecutive days by H and E staining method; type: organism-based; conditions: in vivo, 504 h, time 21 day
[17] = MRT in dog plasma at 10 mg/kg, po measured upto 24 hrs by LC-MS/MS analysis; type: ADME, organism-based, Canis lupus familiaris
[18] = Half life in ICR mouse at 2 mg/kg, iv measured upto 24 hrs by LC-MS/MS analysis; type: ADME, organism-based; conditions: in vivo
[19] = Half life in ICR mouse at 100 mg/kg, po measured upto 24 hrs by LC-MS/MS analysis; type: ADME, organism-based; conditions: in vivo
[20] = MRT in ICR mouse at 100 mg/kg, po measured upto 24 hrs by LC-MS/MS analysis; type: ADME, organism-based; conditions: in vivo
[21] = Volume of distribution at steady state in monkey plasma at 1 mg/kg, iv measured upto 24 hrs by LC-MS/MS analysis; type: ADME, organism-based, Macaca fascicularis; conditions: cynomolgus monkey, read-out: Vdss
[22] = Cmax in dog plasma at 10 mg/kg, po measured upto 24 hrs by LC-MS/MS analysis; type: ADME, organism-based, Canis lupus familiaris; design: time < 24 hrs, dose 10 mg/kg, route po
[23] = Oral bioavailability in ICR mouse at 10 mg/kg measured upto 24 hrs by LC-MS/MS analysis; type: ADME, organism-based; conditions: in vivo
[24] = Clearance in monkey plasma at 1 mg/kg, iv measured upto 24 hrs by LC-MS/MS analysis; type: ADME, organism-based, Macaca fascicularis; conditions: cynomolgus monkey, in vivo
[25] = AUC (0 to infinity) in monkey plasma at 1 mg/kg, iv measured upto 24 hrs by LC-MS/MS analysis; type: ADME, organism-based, Macaca fascicularis; design: time < 24 hrs, dose 1 mg/kg, route iv; conditions: cynomolgus monkey
[26] = Oral bioavailability in ICR mouse at 100 mg/kg measured upto 24 hrs by LC-MS/MS analysis; type: ADME, organism-based; conditions: in vivo
[27] = MRT in ICR mouse at 2 mg/kg, iv measured upto 24 hrs by LC-MS/MS analysis; type: ADME, organism-based; conditions: in vivo
[28] = AUC (0 to infinity) in ICR mouse at 100 mg/kg, po measured upto 24 hrs by LC-MS/MS analysis; type: ADME, organism-based; design: dose 100 mg/kg, time < 24 hrs, route po; conditions: in vivo
[29] = Clearance in ICR mouse at 2 mg/kg, iv measured upto 24 hrs by LC-MS/MS analysis; type: ADME, organism-based; conditions: in vivo
[30] = MRT in monkey plasma at 1 mg/kg, iv measured upto 24 hrs by LC-MS/MS analysis; type: ADME, organism-based, Macaca fascicularis; conditions: cynomolgus monkey
[31] = AUC (0 to infinity) in dog plasma at 10 mg/kg, po measured upto 24 hrs by LC-MS/MS analysis; type: ADME, organism-based, Canis lupus familiaris; design: time < 24 hrs, dose 10 mg/kg, route po
[32] = Toxicity against CB.17 SCID mouse xenografted with human TMD8 cells assessed as effect on heart at 100 mg/kg/day, po for 21 consecutive days by H and E staining method; type: organism-based; conditions: in vivo, 504 h, time 21 day
[33] = Volume of distribution at steady state in dog plasma at 1 mg/kg, iv measured upto 24 hrs by LC-MS/MS analysis; type: ADME, organism-based, Canis lupus familiaris; conditions: read-out: Vdss
[34] = Oral bioavailability in monkey plasma at 10 mg/kg measured upto 24 hrs by LC-MS/MS analysis; type: ADME, organism-based, Macaca fascicularis; conditions: cynomolgus monkey
[35] = Half life in ICR mouse at 10 mg/kg, po measured upto 24 hrs by LC-MS/MS analysis; type: ADME, organism-based; conditions: in vivo
[36] = MRT in ICR mouse at 10 mg/kg, po measured upto 24 hrs by LC-MS/MS analysis; type: ADME, organism-based; conditions: in vivo
[37] = AUC (0 to infinity) in ICR mouse at 2 mg/kg, iv measured upto 24 hrs by LC-MS/MS analysis; type: ADME, organism-based; design: time < 24 hrs, dose 2 mg/kg, route iv; conditions: in vivo
[38] = Toxicity against CB.17 SCID mouse xenografted with human TMD8 cells assessed as effect on lung at 100 mg/kg/day, po for 21 consecutive days by H and E staining method; type: organism-based; conditions: in vivo, 504 h, time 21 day
[39] = AUC (0 to infinity) in ICR mouse at 10 mg/kg, po measured upto 24 hrs by LC-MS/MS analysis; type: ADME, organism-based; design: time < 24 hrs, dose 10 mg/kg, route po; conditions: in vivo
[40] = Cmax in monkey plasma at 10 mg/kg, po measured upto 24 hrs by LC-MS/MS analysis; type: ADME, organism-based, Macaca fascicularis; design: time < 24 hrs, dose 10 mg/kg, route po; conditions: cynomolgus monkey
[41] = Half life in dog plasma at 10 mg/kg, po measured upto 24 hrs by LC-MS/MS analysis; type: ADME, organism-based, Canis lupus familiaris
TMD8 = experiment: In vivo antitumor activity against TMD8 cells xenografted in CB.17 SCID mouse assessed as tumor growth inhibition at 100 mg/kg/day, po for 21 consecutive days measured on day 21 by Vernier caliper relative to control; type: functional, Homo sapiens; conditions: TMD8, 504 h, time 21 day, read-out: TGI

With `Cl.Nc1ccccc1NC(=O)c1ccc(CN2CCC/C(=C\c3ccccn3)C2=O)cc1` the Cmax [1] was 58300 ng/mL, the half-life [2] was 9.14 h and the bioavailability [3] was 58.9%. For the same molecule, the MRT [4] was 8.28 h, the half-life [5] was 4.31 h and the half-life [6] was 1.65 h. The solubility [7] was > 100 mg/mL, the AUC(0-inf) [8] was 53200 ng·h/mL and the Activity [9] was “Non-Toxic”. The clearance [10] was 6.72 mL/min/kg, the MRT [11] was 2.26 h and the AUC(0-inf) [12] was 2550 ng·h/mL. For the same molecule, the Activity [13] was “Non-Toxic”, the Cmax [14] was 3960 ng/mL and the Activity [15] was “Non-Toxic”. For the same molecule, the Activity [16] was “Non-Toxic”, the MRT [17] was 2.71 h and the half-life [18] was 0.427 h. For the same molecule, the half-life [19] was 1.63 h, the MRT [20] was 0.897 h and the Vd [21] was 0.34 L/kg. The Cmax [22] was 4740 ng/mL, the bioavailability [23] was 45.6% and the clearance [24] was 1.35 mL/min/kg. For the same molecule, the AUC(0-inf) [25] was 15700 ng·h/mL, the bioavailability [26] was 91.8% and the MRT [27] was 0.402 h. The AUC(0-inf) [28] was 57200 ng·h/mL, the clearance [29] was 27.2 mL/min/kg and the MRT [30] was 3.41 h. The AUC(0-inf) [31] was 15100 ng·h/mL, the Activity [32] was “Non-Toxic” and the Vd [33] was 0.55 L/kg. It also gave a bioavailability [34] of 27.6%, a half-life [35] of 1.31 h and an MRT [36] of 0.919 h. For the same molecule, the AUC(0-inf) [37] was 1250 ng·h/mL, the Activity [38] was “Non-Toxic” and the AUC(0-inf) [39] was 2670 ng·h/mL. It also gave a Cmax [40] of 8520 ng/mL, a half-life [41] of 1.51 h and an inhibition in vivo at 100 mg/kg/day (TMD8) of 77%.
